Reference: patent US12226412B2, “Heteroaryl-ketone fused azadecalin glucocorticoid receptor modulators” (Corcept Therapeutics, Inc., priority 2012, dated 2025)
Where two headings read alike, the source gives them in different places.

Assays:
[1] = target: T1, human recombinant GR (Homo sapiens, UniProt P04150); experiment: Human glucocorticoid receptor (GR) fluorescence polarisation (FP) binding assay
T1 construct: purchased PanVera P2812
T1 sequence (P04150 1-777): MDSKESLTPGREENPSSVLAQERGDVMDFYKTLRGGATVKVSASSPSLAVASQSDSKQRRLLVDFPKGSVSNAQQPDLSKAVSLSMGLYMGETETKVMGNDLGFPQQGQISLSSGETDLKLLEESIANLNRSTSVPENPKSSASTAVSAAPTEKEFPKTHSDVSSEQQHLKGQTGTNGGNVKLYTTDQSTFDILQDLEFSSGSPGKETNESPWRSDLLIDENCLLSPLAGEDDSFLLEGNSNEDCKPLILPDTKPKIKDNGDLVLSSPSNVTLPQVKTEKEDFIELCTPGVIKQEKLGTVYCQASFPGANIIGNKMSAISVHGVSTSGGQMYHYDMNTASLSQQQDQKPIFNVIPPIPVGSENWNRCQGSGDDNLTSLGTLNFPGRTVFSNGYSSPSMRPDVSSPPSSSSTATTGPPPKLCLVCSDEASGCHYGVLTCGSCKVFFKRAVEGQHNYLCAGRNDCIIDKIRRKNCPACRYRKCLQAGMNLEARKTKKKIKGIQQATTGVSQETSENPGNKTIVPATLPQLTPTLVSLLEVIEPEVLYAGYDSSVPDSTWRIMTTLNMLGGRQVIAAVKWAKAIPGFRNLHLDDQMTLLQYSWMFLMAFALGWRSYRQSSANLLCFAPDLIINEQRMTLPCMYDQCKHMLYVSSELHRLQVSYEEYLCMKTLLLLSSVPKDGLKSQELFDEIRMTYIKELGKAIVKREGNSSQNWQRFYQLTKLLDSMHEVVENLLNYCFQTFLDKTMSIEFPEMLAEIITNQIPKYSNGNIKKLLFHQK
How it was run: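 Competition fluorescence polarisation: 0.5 nM GS Red labelled glucocorticoid and 1 nM recombinant human GR with 8-point half-log compound series, 1% DMSO, 4 h room temperature, potassium phosphate pH 7.4 buffer with molybdate, EDTA, DTT. Affinity derived from the drop in polarisation, normalised to blank wells.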

[2] = test system: induction of TAT by dexamethasone in HepG2 cells; experiment: HepG2 tyrosine aminotransferase (TAT) assay; assay type: cell-based, human
[3] = human recombinant GR, fluorescence polarisation binding assay, read-out: GR binding
[4] = HepG2 cells, challenge of 100 nM dexamethasone, Ki from IC50 by Cheng and Prusoff equation

Row | Structure (SMILES) | Ki [1, 3] [nM] | Ki [2, 4] [nM] | Ki [1] [nM] | Ki [2] [nM]
1 | CCCn1ncc(S(=O)(=O)N2CCC3=Cc4c(cnn4-c4ccc(F)cc4)C[C@]3(C(=O)c3cscn3)C2)n1 [Example 11CQ, (R)-(1-(4-fluorophenyl)-6-((2-propyl-2H-1,2,3-triazol-4-yl)sulfonyl)-4,4a,5,6,7,8-hexahydro-1H-pyrazolo[3,4-g]isoquinolin-4a-yl)(thiazol-4-yl)methanone] | < 0.5 | < 20 | – | –
2 | Cc1ccnc(C(=O)[C@]23Cc4cnn(-c5ccc(F)cc5)c4C=C2CCN(S(=O)(=O)c2ccnc(C(F)(F)F)c2)C3)c1 [Example 11BB, (R)-(1-(4-fluorophenyl)-6-((2-(trifluoromethyl)pyridin-4-yl)sulfonyl)-4,4a,5,6,7,8-hexahydro-1H-pyrazolo[3,4-g]isoquinolin-4a-yl)(4-methylpyridin-2-yl)methanone] | < 0.5 | < 20 | – | –
3 | Cc1ccnc(C(=O)[C@]23Cc4cnn(-c5ccc(F)cc5)c4C=C2CCN(S(=O)(=O)c2cnc4c(c2)OCCN4C)C3)c1 [Example 11AM, (R)-(1-(4-fluorophenyl)-6-((4-methyl-3,4-dihydro-2H-pyrido[3,2-b][1,4]oxazin-7-yl)sulfonyl)-4,4a,5,6,7,8-hexahydro-1H-pyrazolo[3,4-g]isoquinolin-4a-yl)(4-methylpyridin-2-yl)methanone] | < 0.5 | < 20 | – | –
4 | Cc1cccc(S(=O)(=O)N2CCC3=Cc4c(cnn4-c4ccc(F)cc4)C[C@]3(C(=O)c3ccccn3)C2)c1 [Example 2E, (R)-(1-(4-fluorophenyl)-6-(m-tolylsulfonyl)-4,4a,5,6,7,8-hexahydro-1H-pyrazolo[3,4-g]isoquinolin-4a-yl)(pyridin-2-yl)methanone] | – | – | < 0.5 | < 20
5 | Cn1ccnc1S(=O)(=O)N1CCC2=Cc3c(cnn3-c3ccc(F)cc3)C[C@]2(C(=O)c2cc(C(F)(F)F)ccn2)C1 [Example 11BX, (R)-(1-(4-fluorophenyl)-6-((1-methyl-1H-imidazol-2-yl)sulfonyl)-4,4a,5,6,7,8-hexahydro-1H-pyrazolo[3,4-g]isoquinolin-4a-yl)(4-(trifluoromethyl)pyridin-2-yl)methanone] | 0.5 to 1 | < 20 | – | –
6 | CCCn1ncc(S(=O)(=O)N2CCC3=Cc4c(cnn4-c4ccc(F)cc4)C[C@]3(C(=O)c3nccs3)C2)n1 (single isomer, unassigned) [Example 12AA] | < 0.5 | 20 to 100 | – | –
7 | CCn1ncc(S(=O)(=O)N2CCC3=Cc4c(cnn4-c4ccc(F)cc4)C[C@]3(C(=O)c3ccccn3)C2)n1 [Example 11CH, (R)-(6-((2-ethyl-2H-1,2,3-triazol-4-yl)sulfonyl)-1-(4-fluorophenyl)-4,4a,5,6,7,8-hexahydro-1H-pyrazolo[3,4-g]isoquinolin-4a-yl)(pyridin-2-yl)methanone] | < 0.5 | < 20 | – | –
8 | CCc1ccnc(C(=O)[C@]23Cc4cnn(-c5ccc(F)cc5)c4C=C2CCN(S(=O)(=O)c2cc(F)c(F)c(F)c2)C3)c1 [Example 1L, (R)-(4-ethylpyridin-2-yl)(1-(4-fluorophenyl)-6-((3,4,5-trifluorophenyl)sulfonyl)-4,4a,5,6,7,8-hexahydro-1H-pyrazolo[3,4-g]isoquinolin-4a-yl)methanone] | < 0.5 | < 20 | – | –
9 | Cn1ccc(S(=O)(=O)N2CCC3=Cc4c(cnn4-c4ccc(C(F)(F)F)cc4)C[C@]3(C(=O)c3ccccn3)C2)n1 [Example 11BT, (R)-(6-((1-methyl-1H-pyrazol-3-yl)sulfonyl)-1-(4-(trifluoromethyl)phenyl)-4,4a,5,6,7,8-hexahydro-1H-pyrazolo[3,4-g]isoquinolin-4a-yl)(pyridin-2-yl)methanone] | > 1 | ≥ 100 | – | –
10 | O=C(c1nccs1)[C@]12Cc3cnn(-c4ccc(F)cc4)c3C=C1CCN(S(=O)(=O)c1cccc(N3CCCC3)c1)C2 [Example 6A, (R)-(1-(4-fluorophenyl)-6-((3-(pyrrolidin-1-yl)phenyl)sulfonyl)-4,4a,5,6,7,8-hexahydro-1H-pyrazolo[3,4-g]isoquinolin-4a-yl)(thiazol-2-yl)methanone] | < 0.5 | ≥ 100 | – | –
11 | CCn1cc(S(=O)(=O)N2CCC3=Cc4c(cnn4-c4ccc(F)cc4)C[C@]3(C(=O)c3ccccn3)C2)cn1 [Example 11AY, (R)-(6-((1-ethyl-1H-pyrazol-4-yl)sulfonyl)-1-(4-fluorophenyl)-4,4a,5,6,7,8-hexahydro-1H-pyrazolo[3,4-g]isoquinolin-4a-yl)(pyridin-2-yl)methanone] | < 0.5 | 20 to 100 | – | –
12 | O=C(c1cocn1)[C@]12Cc3cnn(-c4ccc(F)cc4)c3C=C1CCN(S(=O)(=O)c1ccc(C(F)(F)F)cc1)C2 [Example 1E, (R)-(1-(4-fluorophenyl)-6-((4-(trifluoromethyl)phenyl)sulfonyl)-4,4a,5,6,7,8-hexahydro-1H-pyrazolo[3,4-g]isoquinolin-4a-yl)(oxazol-4-yl)methanone] | – | 20 to 100 | < 0.5 | –
13 | Cn1ccnc1C(=O)[C@]12Cc3cnn(-c4ccc(F)cc4)c3C=C1CCN(S(=O)(=O)c1ccc(C(F)(F)F)cc1)C2 [Example 1A, (R)-(1-(4-fluorophenyl)-6-((4-(trifluoromethyl)phenyl)sulfonyl)-4,4a,5,6,7,8-hexahydro-1H-pyrazolo[3,4-g]isoquinolin-4a-yl)(1-methyl-1H-imidazol-2-yl)methanone] | 0.5 to 1 | 20 to 100 | – | –
14 | O=C(c1cnccn1)[C@]12Cc3cnn(-c4ccc(F)cc4)c3C=C1CCN(S(=O)(=O)c1ccc(C(F)(F)F)cc1)C2 [Example 5E, (R)-(1-(4-fluorophenyl)-6-((4-(trifluoromethyl)phenyl)sulfonyl)-4,4a,5,6,7,8-hexahydro-1H-pyrazolo[3,4-g]isoquinolin-4a-yl)(pyrazin-2-yl)methanone] | – | – | < 0.5 | 20 to 100
15 | CCn1cc(S(=O)(=O)N2CCC3=Cc4c(cnn4-c4ccc(F)cc4)C[C@]3(C(=O)c3ccccn3)C2)nn1 [Example 11CJ, (R)-(6-((1-ethyl-1H-1,2,3-triazol-4-yl)sulfonyl)-1-(4-fluorophenyl)-4,4a,5,6,7,8-hexahydro-1H-pyrazolo[3,4-g]isoquinolin-4a-yl)(pyridin-2-yl)methanone] | < 0.5 | 20 to 100 | – | –
16 | O=C(c1ccccn1)[C@]12Cc3cnn(-c4ccc(F)cc4)c3C=C1CCN(S(=O)(=O)c1ccc(Cl)c(Cl)c1)C2 [Example 11AF, (R)-(6-((3,4-dichlorophenyl)sulfonyl)-1-(4-fluorophenyl)-4,4a,5,6,7,8-hexahydro-1H-pyrazolo[3,4-g]isoquinolin-4a-yl)(pyridin-2-yl)methanone] | – | – | < 0.5 | < 20
17 | O=C(c1ccccn1)[C@]12Cc3cnn(-c4ccc(F)cc4)c3C=C1CCN(S(=O)(=O)c1ccc(C(F)(F)F)cc1)C2 [Example 1, (R)-(1-(4-fluorophenyl)-6-((4-(trifluoromethyl)phenyl)sulfonyl)-4,4a,5,6,7,8-hexahydro-1H-pyrazolo[3,4-g]isoquinolin-4a-yl)(pyridin-2-yl)methanone] | – | – | < 0.5 | < 20
18 | O=C(c1nccs1)[C@]12Cc3cnn(-c4ccc(F)cc4)c3C=C1CCN(S(=O)(=O)c1cc(F)c(F)c(F)c1)C2 [Example 12J, (R)-(1-(4-fluorophenyl)-6-((3,4,5-trifluorophenyl)sulfonyl)-4,4a,5,6,7,8-hexahydro-1H-pyrazolo[3,4-g]isoquinolin-4a-yl)(thiazol-2-yl)methanone] | < 0.5 | 20 to 100 | – | –
